Assay results taken from US20190297890A1, “FUNGICIDAL COMPOUNDS AND MIXTURES FOR FUNGAL CONTROL IN CEREALS” (Dow AgroSciences LLC, priority 2016, published 2019).

Tested on: Zymoseptoria tritici (SEPTTR)
Experiment: Field assessment of Zymoseptoria tritici (SEPTTR) in wheat, three field trials
Assay type: in vivo, Zymoseptoria tritici on winter wheat (TRZAW)
Details: average over 3 field trials
Text: Treatments consisted of the compound of Formula I and chlorothalonil either using individually or as a two-way mixture with the compound of Formula I. The compound of Formula I was applied with Agnique BP-420 (50% w/w at 0.3% v/v) at 75 and 150 g ai/ha and chlorothalonil (Bravo 500) was applied at 375 and 500 g ai/ha. Commercial standards used in the studies were Fluxapyroxad (Imtrex), applied at 100 g ai/ha, and Metconazole+Fluxapyroxad (Librax), applied at 161 g ai/ha.
Field Assessment of Zymoseptoria tritici (SEPTTR) in Wheat:
Fungicidal treatments containing the compound of Formula I and chlorothalonil, either individually or as a two way mixture, were assessed against leaf spot of wheat (SEPTTR) in three separate field trials. In the first trial, fungicidal treatments were applied at BBBCH37 (curative, 3% infection at application on L3) growth stage of winter wheat (TRZAW, Dinosor variety) under naturally occurring infection with SEPTTR. The treatments were part of an experimental trial designed as a randomized complete block with four replications and a plot of approximately 1×6 m. Treatments were applied at water volume of 200 L/ha, using a backpack plot sprayer (BKPCKENG, FLATFANA nozzle) and pressurized at 200 kPa.
In the second trial, fungicidal treatments were applied twice at BBCH32 (curative, 25% infection at application on L5) and BBBCH37-39 (5% infection at application on L3) growth stages of winter wheat (TRZAW, Consort variety) under naturally occurring infection with SEPTTR. The treatments were part of an experimental trial designed as a randomized complete block with four replications and a plot of approximately 1×2 m. Treatments were applied at water volume of 200 L/ha, using a backpack plot sprayer (BKPCKAIR, Flat fan nozzle) and pressurized at 210 kPa.
In the final trial, fungicidal treatments were applied twice at BBCH32 (protective, 15% infection at application on L6) and BBBCH37-39 (12% infection at application on L5) growth stages of winter wheat (TRZAW, Smaragd variety) under naturally occurring infection with SEPTTR. […]
Disease severity (percentage of visual diseased foliage on whole plot or leaves) in […] was recorded following EPPO PP1/26 guideline prescriptions. Area under the disease progress curve (AUDPC) was calculated for each plot in both trials using the sets of recorded severity data. Relative AUDPC (% control based on AUDPC) was calculated as percent of the nontreated control. Final results for the control of leaf spot of wheat by the compound of Formula I, chlorothalonil, and mixtures are reported as an average of the relative AUDPC calculated over all three field trials. […]

Structure (SMILES)	SEPTTR % Control based on AUDPC (375 g ai/ha)	SEPTTR % Control based on AUDPC (500 g ai/ha)	SEPTTR % Control based on AUDPC (75 g ai/ha, with Agnique BP-420 (50% w/w at 0.3% v/v))	SEPTTR % Control based on AUDPC (150 g ai/ha, with Agnique BP-420 (50% w/w at 0.3% v/v))
N#Cc1c(Cl)c(Cl)c(Cl)c(C#N)c1Cl [Chlorothalonil, tetrachloroisophthal-onitrile]	31.8%	37.8%	–	–
N#Cc1ccc(Oc2ccc(C(F)(F)C(O)(Cn3nc[nH]c3=S)c3ccc(F)cc3F)nc2)cc1 (stereo not shown) [Compound I, 4-((6-(2-(2,4-difluorophenyl)-1,1-difluoro-2-hydroxy-3-(5-thioxo-4,5-dihydro-1H-1,2,4-triazol-1-yl)propyl)pyridin-3-yl)oxy)benzonitrile]	–	–	61.2%	72.2%
